According to PMC2932859 (Journal of medicinal chemistry, 2010):
“Also recorded” adds a separate entry of the source.

Key:
[1] = system: tachyzoites of RH strain of T. gondii; assay: Inhibition of T. gondii tachyzoites in vitro; assay type: cell-based, Toxoplasma gondii; settings: uptake of tritiated uracil
[2] = system: human foreskin fibroblasts (HFF); assay: Toxicity for host cells; assay type: cell-based; settings: uptake of 3H thymidine by nonconfluent HFF
TgENR = biological target: T1, TgENR (Toxoplasma gondii, UniProt Q6UCJ9); assay: TgENR inhibitor assay; assay type: biochemical; settings: for Inhibition of TgENR, in words: recombinant TgENR enzyme assay
T1 sequence (Q6UCJ9 28-417): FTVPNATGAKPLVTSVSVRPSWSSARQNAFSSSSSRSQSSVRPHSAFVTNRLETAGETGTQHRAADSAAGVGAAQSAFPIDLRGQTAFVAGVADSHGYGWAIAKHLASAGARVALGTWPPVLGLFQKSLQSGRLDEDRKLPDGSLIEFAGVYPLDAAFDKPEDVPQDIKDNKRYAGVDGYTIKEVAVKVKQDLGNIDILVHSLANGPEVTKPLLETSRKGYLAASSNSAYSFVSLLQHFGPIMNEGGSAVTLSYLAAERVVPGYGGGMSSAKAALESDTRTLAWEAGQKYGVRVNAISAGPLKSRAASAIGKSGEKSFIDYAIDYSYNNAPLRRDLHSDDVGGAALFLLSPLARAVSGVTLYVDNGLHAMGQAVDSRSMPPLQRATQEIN

[3] = system: T. gondii (RH strain, Type 1); assay: Testing of inhibitors in vivo, acute parenteral infection of mice; parameters: species or system Toxoplasma gondii; settings: for Parasite burden in mice: CD1 mice infected intraperitoneally with 2000 T. gondii, inhibitors intraperitoneally at 10mg/kg, peritoneal cavity, day 5 post-infection, P<0.05; for Efficacy in protecting mice against parasite burden relative to triclosan: higher than triclosan itself
[4] = Human liver microsomal stability; assay type: in vitro ADME; settings: compared with control drug verapamil
P. falciparum ENR = settings: read-out: IC50 against P. falciparum ENR; cited from earlier work
S. aureus ENR = settings: cited from earlier work
E. coli ENR = settings: cited from earlier work
[5] = earlier studies; cited from earlier work

Compound | Effect on T. gondii tachyzoites in tissue culture, in words [1] | Toxicity to fibroblasts, in words [2] | Inhibition of TgENR, in words (TgENR) | further results
O=[N+]([O-])c1ccc(Oc2ccc(Cl)cc2O)c(Cl)c1 [Compound 2] | inhibition of T. gondii tachyzoites | lack of inhibition of fibroblast growth | highly active | IC50 (TgENR): 45 nM; Parasite burden in mice [3]: reduce parasite burden; Efficacy in protecting mice against parasite burden relative to triclosan [3]: approximately 5 times; Intrinsic clearance, metabolic rate in HLM, in words [4]: slower than the control drug verapamil; IC50 (P. falciparum ENR): 200 nM
Oc1cc(Cl)ccc1Oc1ccc(-c2ccccc2)cc1 [Compound 6] |  |  |  | IC50 (TgENR): > 2000 nM
Oc1cc(Cl)ccc1Oc1cccnc1 [Compound 17] |  |  | some activity | 
Oc1cc(Cl)ccc1Oc1cnccn1 [Compound 18] |  |  | no activity | 
CCCc1ccc(Oc2ccc(C#N)cc2Cl)c(O)c1 [Compound 19] | inhibition of T. gondii tachyzoites; also recorded: efficacious | lack of inhibition of fibroblast growth; also recorded: not toxic |  | Parasite burden in mice [3]: reduce parasite burden; Efficacy in protecting mice against parasite burden relative to triclosan [3]: approximately 5 times; Intrinsic clearance, metabolic rate in HLM, in words [4]: slower than the control drug verapamil
CCCc1ccc(Oc2cccc(B(O)O)c2)c(O)c1 [Compound 20, 3-(2-Hydroxy-4-propylphenoxy)phenyl boronic acid] |  |  | very effective inhibitor | 
C/C=C/C=C/C(=O)Nc1ccc(Oc2ccc(Cl)cc2O)cc1 [Compound 25, Hexa-2,4-dienoic acid (4-(4-chloro-2-hydroxyphenoxy)-phenyl)amide] | lack of inhibition | toxic |  | 
O=c1cc(OCc2ccccc2)ccn1Cc1ccc([N+](=O)[O-])cc1Cl [Compound 39] | inhibition of T. gondii tachyzoites | lack of inhibition of fibroblast growth | low micro molar; also recorded: poor inhibitor | 
CN(Cc1cc2ccccc2n1C)C(=O)/C=C/c1ccc(N)nc1 [Compound 50] |  |  | moderate activity | Activity against S. aureus ENR, in words (S. aureus ENR): very effective; Activity against E. coli ENR, in words (E. coli ENR): very effective
Oc1cc(Cl)ccc1Oc1ccc(Cl)cc1Cl [Triclosan] |  |  |  | Safety in mice, in words [5]: safe
